Measured values taken from PMC12365235, “Molecular mechanisms of thiazide-like diuretics-mediated inhibition of the human Na-Cl cotransporter” (Nature Communications, 2025).

Target: T1, hNCC(N149A) (Homo sapiens, UniProt P55017, N149A)
T1 construct: expressed in transfected cells
T1 sequence (P55017 1-1021 N149A): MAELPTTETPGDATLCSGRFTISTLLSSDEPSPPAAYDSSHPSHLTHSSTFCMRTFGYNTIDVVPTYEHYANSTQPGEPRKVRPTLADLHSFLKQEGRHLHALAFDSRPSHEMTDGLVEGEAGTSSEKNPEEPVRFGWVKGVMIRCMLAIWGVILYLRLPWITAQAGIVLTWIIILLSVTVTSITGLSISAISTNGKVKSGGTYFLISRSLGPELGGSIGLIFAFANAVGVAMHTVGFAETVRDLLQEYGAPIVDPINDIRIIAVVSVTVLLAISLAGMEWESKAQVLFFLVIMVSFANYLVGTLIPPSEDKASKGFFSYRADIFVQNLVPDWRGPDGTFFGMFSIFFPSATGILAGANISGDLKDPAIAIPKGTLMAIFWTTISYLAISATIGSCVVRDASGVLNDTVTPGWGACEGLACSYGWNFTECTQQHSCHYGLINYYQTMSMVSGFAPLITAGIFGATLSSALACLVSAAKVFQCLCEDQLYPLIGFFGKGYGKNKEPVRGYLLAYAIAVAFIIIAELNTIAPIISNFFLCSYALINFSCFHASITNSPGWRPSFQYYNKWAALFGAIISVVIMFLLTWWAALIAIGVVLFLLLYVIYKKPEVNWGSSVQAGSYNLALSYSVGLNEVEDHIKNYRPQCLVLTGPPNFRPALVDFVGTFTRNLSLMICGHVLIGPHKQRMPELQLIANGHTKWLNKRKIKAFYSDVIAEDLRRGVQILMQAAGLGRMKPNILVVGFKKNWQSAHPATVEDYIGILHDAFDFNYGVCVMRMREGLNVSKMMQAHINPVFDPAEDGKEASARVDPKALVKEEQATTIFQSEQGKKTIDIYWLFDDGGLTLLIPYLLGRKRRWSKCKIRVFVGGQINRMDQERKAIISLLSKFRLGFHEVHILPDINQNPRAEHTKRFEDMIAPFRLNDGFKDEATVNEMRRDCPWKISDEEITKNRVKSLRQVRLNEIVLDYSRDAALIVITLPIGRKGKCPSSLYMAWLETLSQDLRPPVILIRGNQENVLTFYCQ
Assay: 125I- uptake assay, hNCC(N149A) variant
Type: cell-based
Details: N149A substitution; for IC50: iodide uptake
Method: HEK293S cell lines, cultured in 293 Freestyle medium (Life Technologies; plus 10% fetal bovine serum), stably expressing hNCC and its variants were generated following published protocols. Cells were transfected using Lipofectamine 3000 (Invitrogen) with a pSBbi-RP-based plasmid containing hNCC or its variants and the SB100X vector. Puromycin (2 μg/mL; Gemini Bio-Products) was used for selection of stable cell lines.
To prepare for the uptake experiment, cells were plated at 0.5 × 10^6 cells/well in 24-well plates one day in advance. To activate NCC, cells were treated with a chloride-free hypotonic solution composed of 67.5 mM sodium-, 2.5 mM potassium-, 0.25 mM magnesium-, and 0.25 mM calcium-gluconate, as well as 7.5 mM HEPES pH 7.4 (buffered using Tris) at 37 °C for 10 min[72]. After the activation step, the experiments were carried out at room temperature. Ten minutes before the start of ^125I^− uptake, 70 μM Bumetanide (Thermo Scientific Chemicals) and 100 μM 4,4′-diisothiocyanatostilbene-2,2′-disulfonic acid (DIDS; Sigma) were added to suppress background iodide uptake activity. Indicated thiazide diuretics were also added to the indicated concentrations 10 min before the start of ^125I^− uptake. The original buffer was switched to an uptake buffer composed of 135 mM Na-gluconate, 5 mM K-gluconate, 1 mM Mg-gluconate, 1 mM Ca-gluconate, 70 μM bumetanide, 100 μM DIDS, 1 mM NaI, 0.25 μCi/ml Na^125I (American Radiolabeled Chemicals, Inc.), and 15 mM HEPES pH 7.4 (buffered using Tris), in the presence or absence of thiazide diuretics to initiate ^125I^− uptake. The ^125I^− uptake process lasted 1 h and was stopped by two rapid washes using ice-cold 110 mM MgCl2. Cells lysed using 1% sodium dodecyl sulfate (SDS) were analyzed by scintillation counting.
To calculate the fold change of the half-maximal inhibitory concentration (IC50) between hNCC(WT) and different hNCC variants, individual dose-response curves were normalized first using the smallest mean and the value of the lowest concentration as 0% and 100%, respectively. The normalized data were then fitted using the “EC50 shift” nonlinear regression in GraphPad Prism 10 with the shared EC50Control assigned to be the IC50 of hNCC(WT). The following constraints were used in the EC50 shift analysis. The EC50Control was set to be shared across all curves under analysis and constrained to be greater than 0. The EC50Ratio was constrained to be greater than 0. The bottom, top, and HillSlope were constrained to be 0, 100, and −1, respectively. For Fig. 1f, g and Supplementary Fig. 2d, GraphPad Prism 10 was used to perform curve fitting and IC50 calculation for normalized data using y = 100/(1 + (x/IC50)).

NS(=O)(=O)c1cc(C2(O)NC(=O)c3ccccc32)ccc1Cl (stereo not shown) [chlorthalidone]
fold less sensitive than hNCC(WT): ~95 fold
IC50: 2200 nM

CC1Cc2ccccc2N1NC(=O)c1ccc(Cl)c(S(N)(=O)=O)c1 (stereo not shown) [indapamide]
fold less sensitive than hNCC(WT): approximately 27 fold
IC50: 340 nM
